Data published in DBAASP.
≈ marks a conversion by molar mass, not a printed value.

How the values were obtained:
Assay in all cases: ≥ marks a high value that may be exact or a test limit, other limits are often not marked, values filed in µg/mL are converted to µM
[1] = test system: Staphylococcus aureus MR
[2] = test system: Pseudomonas aeruginosa
[3] = test system: Staphylococcus aureus
[4] = test system: Escherichia coli
[5] = test system: Staphylococcus aureus ATCC 25923
[6] = test system: Escherichia coli ATCC 25726
[7] = test system: Pseudomonas aeruginosa CMCCB 10104
[8] = test system: Candida albicans ATCC 2002
[9] = test system: Escherichia coli ATCC 25922
[10] = test system: Micrococcus luteus
[11] = test system: Pasteurella multocida
[12] = test system: Staphylococcus epidermidis
[13] = test system: Bacillus cereus
[14] = test system: Streptococcus uberis
[15] = test system: Listeria innocua
[16] = test system: Leuconostoc lactis
[17] = test system: Staphylococcus aureus ATCC 2592

| Compound | MIC [3] | MIC [4] | MIC [5] | MIC [7] | MIC [8] | MIC [9] | also measured |
| --- | --- | --- | --- | --- | --- | --- | --- |
| CC[C@H](C)[C@H](NC(=O)[C@H](C)NC(=O)[C@H](CC(C)C)NC(=O)[C@H](CS)NC(=O)[C@H](Cc1cnc[nH]1)NC(=O)[C@H](C)N)C(=O)NCC(=O)N[C@@H](CCCN=C(N)N)C(=O)N[C@@H](CCCCN)C(N)=O [AHCLAIGRK] | 25.8 µM | 25.8 µM |  |  |  |  | MIC [1]: ≥ 51.6 µM; MIC [2]: > 51.6 µM |
| CC[C@H](C)[C@H](NC(=O)CN)C(=O)N[C@@H](CC(C)C)C(=O)N[C@@H](CO)C(=O)NCC(=O)N[C@H](C(=O)N[C@@H](CC(C)C)C(=O)NCC(=O)N[C@@H](CCSC)C(=O)NCC(=O)N[C@@H](CCCCN)C(=O)N[C@@H](CCCCN)C(=O)N[C@H](C(=O)N[C@H](C(=O)N[C@H]1CSSC[C@@H](C(=O)O)NC(=O)[C@H](CC(C)C)NC(=O)CNC(=O)[C@H](CCCN=C(N)N)NC(=O)[C@H](CC(C)C)NC(=O)CNC1=O)C(C)C)[C@@H](C)CC)C(C)C [GILSGVLGMGKKIVCGLRGLC] |  |  | 1.74 µM (≈ 3.6 µg/mL) | 6.84 µM (≈ 14.2 µg/mL) | 3.47 µM (≈ 7.19 µg/mL) | 3.47 µM (≈ 7.19 µg/mL) |  |
| CC[C@H](C)[C@H](NC(=O)[C@@H](NC(=O)CN)C(C)C)C(=O)N[C@@H](CC(=O)O)C(=O)N[C@@H](C)C(=O)N[C@@H](C)C(=O)N[C@@H](CCCCN)C(=O)N[C@@H](CCCCN)C(=O)N[C@H](C(=O)N[C@H](C(=O)N[C@@H](CC(N)=O)C(=O)N[C@H](C(=O)N[C@@H](CC(C)C)C(=O)N[C@@H](CCCCN)C(=O)N[C@@H](CC(N)=O)C(=O)N[C@@H](CC(C)C)C(=O)N1CCC[C@H]1C(N)=O)C(C)C)C(C)C)C(C)C [GVIDAAKKVVNVLKNLP] | 14.1 µM (≈ 25 µg/mL) | > 56.2 µM |  |  |  |  | MIC [10]: 14.1 µM (≈ 25 µg/mL); MIC [11]: ≥ 56.2 µM; MIC [12]: 7.03 µM (≈ 12.5 µg/mL); MIC [13]: 14.1 µM (≈ 25 µg/mL); MIC [14]: 7.03 µM (≈ 12.5 µg/mL); MIC [15]: 28.1 µM (≈ 50 µg/mL); MIC [16]: 1.69 µM (≈ 3 µg/mL) |
| CC[C@H](C)[C@H](N)C(=O)N[C@@H](CC(C)C)C(=O)NCC(=O)N1CCC[C@H]1C(=O)N[C@H](C(=O)N[C@H](C(=O)N[C@@H](CO)C(=O)N[C@@H](CCCCN)C(=O)N[C@H](C(=O)NCC(=O)NCC(=O)N[C@H](C(=O)N[C@@H](CC(C)C)C(=O)NCC(=O)NCC(=O)N[C@@H](CC(C)C)C(=O)N[C@@H](CC(C)C)C(=O)N[C@@H](CCCCN)C(=O)N[C@@H](CC(N)=O)C(=O)N[C@@H](CC(C)C)C(N)=O)C(C)C)[C@@H](C)CC)[C@@H](C)CC)C(C)C [ILGPVISKIGGVLGGLLKNL] |  |  |  | 6.12 µM (≈ 12 µg/mL) | 3.06 µM (≈ 6 µg/mL) | 6.12 µM (≈ 12 µg/mL) | MIC [17]: 3.06 µM (≈ 6 µg/mL) |
| CC(C)C[C@@H]1NC(=O)[C@H](CCCN=C(N)N)NC(=O)[C@H](CC(C)C)NC(=O)[C@H](CC(C)C)NC(=O)[C@H](Cc2c[nH]c3ccccc23)NC(=O)[C@H](C(C)C)NC(=O)[C@H](Cc2ccc(O)cc2)NC(=O)[C@H](CC(C)C)NC(=O)[C@H](C(C)C)NC(=O)[C@H](CCC(N)=O)NC(=O)[C@@H](NC(=O)[C@H](Cc2ccccc2)NC(=O)[C@H](CC(N)=O)NC(=O)[C@H](CC(N)=O)NC(=O)[C@@H](N)CCCCN)CSSC[C@@H](C(=O)N[C@@H](Cc2ccccc2)C(=O)N[C@H](C(=O)N[C@@H](CCCCN)C(=O)N[C@@H](Cc2ccccc2)C(=O)N[C@@H](CO)C(=O)N[C@@H](CCCCN)C(=O)N[C@@H](CC(=O)O)C(=O)N[C@H](C(=O)N[C@@H](CCC(=O)O)C(=O)N[C@H](C(=O)O)[C@@H](C)O)C(C)C)C(C)C)NC(=O)[C@H](CCC(N)=O)NC(=O)[C@H](CCCCN)NC(=O)CNC1=O [KNNFCQVLYVWLLRLGKQCFVKFSKDVET] |  |  | > 28.5 µM | 28.5 µM (≈ 99.9 µg/mL) | 28.5 µM (≈ 99.9 µg/mL) | > 28.5 µM |  |

Second part, led by results:

| MIC [3] | MIC [4] | MIC [5] | MIC [7] | MIC [8] | MIC [9] | Compound | also measured |
| --- | --- | --- | --- | --- | --- | --- | --- |
|  |  | 36.7 µM (≈ 125 µg/mL) |  |  |  | CC[C@H](C)[C@H](NC(=O)[C@H](CCSC)NC(=O)[C@H](C)NC(=O)[C@H](CC(N)=O)NC(=O)[C@H](CCCCN)NC(=O)[C@H](Cc1ccccc1)NC(=O)[C@H](CO)NC(=O)[C@H](CC(=O)O)NC(=O)[C@H](CC(C)C)NC(=O)[C@H](Cc1ccccc1)NC(=O)CN)C(=O)NCC(=O)N[C@H](C(=O)N[C@@H](C)C(=O)N[C@@H](CCCCN)C(=O)N[C@@H](CO)C(=O)N[C@H](C(=O)NCC(=O)N[C@@H](CCCCN)C(=O)N[C@H](C(=O)N[C@@H](C)C(=O)N[C@@H](CC(C)C)C(=O)N[C@@H](CO)C(=O)N[C@H](C(=O)N[C@@H](CC(C)C)C(=O)N[C@@H](C)C(=O)N[C@H]1CSSC[C@@H](C(=O)O)NC(=O)[C@H](CO)NC(=O)[C@H](CCCCN)NC(=O)[C@H](CC(=O)O)NC(=O)[C@H]([C@@H](C)CC)NC(=O)[C@H](CCCCN)NC1=O)[C@@H](C)O)[C@@H](C)O)C(C)C)C(C)C [GFLDSFKNAMIGVAKSVGKTALSTLACKIDKSC] | MIC [6]: 18.4 µM (≈ 62.5 µg/mL) |
|  |  | 1.55 µM (≈ 4.2 µg/mL) | 0.773 µM (≈ 2.1 µg/mL) | 0.773 µM (≈ 2.1 µg/mL) | 1.55 µM (≈ 4.2 µg/mL) | CC[C@H](C)[C@H](NC(=O)CNC(=O)[C@H](CCCCN)NC(=O)CNC(=O)[C@H](C)NC(=O)[C@H](Cc1ccccc1)NC(=O)[C@H](CCCCN)NC(=O)[C@H](CO)NC(=O)[C@H](Cc1ccccc1)NC(=O)[C@H](CC(C)C)NC(=O)CN)C(=O)N[C@@H](CCCCN)C(=O)N[C@@H](CC(N)=O)C(=O)N[C@@H](Cc1ccccc1)C(=O)N[C@@H](CC(C)C)C(=O)N[C@@H](CC(N)=O)C(=O)N[C@@H](CCCCN)C(=O)NCC(=O)N[C@H](C(=O)N[C@@H](CCCCN)C(=O)N[C@@H](Cc1cnc[nH]1)C(=O)N[C@H](C(=O)NCC(=O)N[C@@H](CCCCN)C(=O)N[C@@H](CCC(=O)O)C(=O)O)[C@@H](C)CC)C(C)C [GLFSKFAGKGIKNFLNKGVKHIGKE] |  |
| 9.82 µM (≈ 25 µg/mL) | > 39.3 µM |  |  |  |  | CC[C@H](C)[C@H](NC(=O)[C@@H](NC(=O)CNC(=O)[C@@H](NC(=O)[C@@H](NC(=O)[C@H](Cc1cnc[nH]1)NC(=O)[C@@H]1CCCN1C(=O)[C@H](CC(C)C)NC(=O)[C@@H](NC(=O)[C@H](Cc1cnc[nH]1)NC(=O)[C@H](CCCCN)NC(=O)[C@H](C)NC(=O)[C@@H](NC(=O)[C@H](CO)NC(=O)CNC(=O)[C@H](CC(C)C)NC(=O)[C@@H](NC(=O)[C@H](CO)NC(=O)[C@H](CC(C)C)NC(=O)[C@H](CC(C)C)NC(=O)CN)C(C)C)C(C)C)C(C)C)C(C)C)C(C)C)C(C)C)C(=O)N[C@@H](C)C(=O)N[C@@H](CCC(=O)O)C(=O)N[C@@H](Cc1cnc[nH]1)C(=O)N[C@@H](CC(C)C)C(N)=O [GLLSVLGSVAKHVLPHVVGVIAEHL] | MIC [10]: 4.91 µM (≈ 12.5 µg/mL); MIC [11]: 19.6 µM (≈ 50 µg/mL); MIC [12]: ≥ 39.3 µM; MIC [13]: ≥ 39.3 µM; MIC [14]: 9.82 µM (≈ 25 µg/mL); MIC [15]: 9.82 µM (≈ 25 µg/mL); MIC [16]: 4.91 µM (≈ 12.5 µg/mL) |
|  |  | 50 µM (≈ 134 µg/mL) |  |  |  | CC[C@H](C)[C@H](NC(=O)[C@H](CCCCN)NC(=O)[C@H](CO)NC(=O)[C@H](C)NC(=O)[C@H](Cc1c[nH]c2ccccc12)NC(=O)CN)C(=O)NCC(=O)N[C@@H](CCC(N)=O)C(=O)N[C@H](C(=O)N[C@@H](CC(C)C)C(=O)NCC(=O)N[C@@H](CCCCN)C(=O)N[C@@H](CCSC)C(=O)N[C@@H](C)C(=O)N[C@@H](CCCCN)C(=O)N[C@H](C(=O)NCC(=O)N[C@@H](CC(C)C)C(=O)N[C@@H](CCC(N)=O)C(=O)N[C@@H](CCC(=O)O)C(=O)N[C@@H](CC(C)C)C(=O)N[C@H](C(=O)N[C@@H](CCC(N)=O)C(=O)N1CCC[C@H]1C(=O)N[C@@H](CCCCN)C(=O)O)[C@@H](C)CC)C(C)C)[C@@H](C)O [GWASKIGQTLGKMAKVGLQELIQPK] | MIC [6]: ≥ 50 µM |
|  |  | 0.993 µM (≈ 3.3 µg/mL) | 1.99 µM (≈ 6.6 µg/mL) | 0.993 µM (≈ 3.3 µg/mL) | 1.99 µM (≈ 6.6 µg/mL) | CC[C@H](C)[C@H](NC(=O)[C@H](CC(C)C)NC(=O)[C@H](CC(C)C)NC(=O)[C@H](CC(=O)O)NC(=O)[C@H](CCCCN)NC(=O)[C@@H](NC(=O)[C@@H](NC(=O)CNC(=O)[C@H](CCSC)NC(=O)[C@@H](NC(=O)[C@@H](N)CO)C(C)C)[C@@H](C)O)C(C)C)C(=O)NCC(=O)N[C@@H](C)C(=O)NCC(=O)N[C@@H](CCCCN)C(=O)N[C@@H](CO)C(=O)N[C@@H](C)C(=O)N[C@@H](C)C(=O)N[C@@H](CCC(N)=O)C(=O)N[C@@H](CO)C(=O)N[C@H](C(=O)N[C@@H](CC(C)C)C(=O)N[C@@H](CCCCN)C(=O)N[C@@H](CO)C(=O)N[C@@H](CC(C)C)C(=O)N[C@@H](CO)C(=O)N[C@H]1CSSC[C@@H](C(=O)O)NC(=O)[C@H](CC(=O)O)NC(=O)[C@H](CC(N)=O)NC(=O)[C@H](CO)NC(=O)[C@H](CC(C)C)NC(=O)[C@H](CCCCN)NC1=O)C(C)C [SVMGTVKDLLIGAGKSAAQSVLKSLSCKLSNDC] |  |
